“Also recorded” adds a separate entry of the source.

Experiment [1] relates to Human epidermal keratinocyte cells (HaCaT). Nature of the experiment: MTT assay, cell viability of HaCaT keratinocytes. The format is cell-based. The note with it: versus control without DMG, FIG. 1. The method, then:
(§1) 1. As part of an in vitro study, the effect of Na-dimethylglycinate was examined in a cell culture model with human horn-forming keratinocyte cells. For this purpose, HaCaT cells were cultured for 1, 3, 5, and 7 days in DMEM medium (including fetal calf serum and an anti biotic-anti mycotic mix) and, among other things, the viability and proliferation of the cells were determined using suitable measurement methods, and the expression of the growth factors relevant for cell growth was measured.
For this measurement, a so-called MTT assay was used to determine cellular metabolic activity as an indicator of cell viability and cytotoxicity. This colorimetric assay is based on the reduction of a yellow tetrazolium salt (3-(4,5-dimethylthiazol-2-yl)-2,5-diphenyltetrazolium bromide or MTT) to purple formazan crystals by metabolically active cells.
Human epidermal keratinocyte cells (HaCaT) were seeded in a 96-well plate at a cell density of 5,000 cells/well and cultured in medium (DMEM with 10% FBS, 1% penicillin-streptomycin, 0.5% fungizone). […]
Cell viability was determined using the MTT assay. The absorption was measured in quadruplicate and normalized to the control at 24 hours. […]
In general terms: Tetrazolium assays rely on reduction of a dye to a coloured formazan, in cell work by metabolically active cells.

Experiment [2] shares this test system. Nature of the experiment: CyQUANT assay, cell proliferation of HaCaT keratinocytes. The note with it: versus control without DMG, FIG. 2. It is filed as cell-based. The method, then:
as §1
A so-called CyQUANT assay was carried out to measure the proliferation. In this fluorescence-based assay, the fluorescent dye used binds to DNA (deoxyribonucleic acid), with the content of cellular DNA being a direct measure of the number of cells in a sample.
Human epidermal keratinocyte cells (HaCaT) were seeded in a 96-well plate at a cell density of 5,000 cells/well and cultured in medium (DMEM with 10% FBS, 1% penicillin-streptomycin, 0.5% fungizone). The next day and after a further 24 h as well as 48 h and 72 h of cultivation at 37° C. and 5% by volume CO2, the cell culture medium without (control) or with the active ingredient concentrations already present was changed. […]
The cell proliferation was determined using the CyQUANT assay. The fluorescence was measured in triplicate and normalized to the control at 24 hours. […]

The next experiment deals with VEGF. Put plainly: Gene expression of VEGF by qRT-PCR in HaCaT cells. It is filed as cell-based, human. The note with it: after 24 hours of cultivation, versus control without DMG, FIG. 3. The method, then: VEGF (Vascular Endothelial Growth Factor) promotes the growth and formation of new blood and lymphatic vessels. Gene expression was measured using a standard method known as quantitative real-time PCR (qRT-PCR).
Human epidermal keratinocyte cells (HaCaT) were seeded in a 6-well plate at a cell density of 140,000 cells/well and cultured in medium (DMEM with 10% FBS, 1% penicillin-streptomycin, 0.5% fungizone) at 37° C. und 5% by volume CO2. The next day, the cell culture medium without (control) or with the active substance concentrations already present in each case was changed, and the cells were harvested after 24 hours. Gene expression was measured using qRT-PCR based on studies already published in B. V. Diaz, M.-C. Lenoir, A. Ladoux, C. Frelin, M. Demarchez, S. Michel, Journal of Biological Chemistry 2000, 275, 642-650.
The relative gene expression determined by qRT-PCR (triple determination, normalized to the respective gene expression of a constitutively expressed gene; GAPDH—glyceraldehyde-3-phosphate dehydrogenase) of VEGF is shown. Shown is the mean value with standard deviation.
A general note: Real-time PCR tracks product formation cycle by cycle.

With `CN(C)CC(=O)[O-].[Na+]` [DMG, sodium dimethylglycinate], the “cell viability (MTT absorption normalized to the control at 24 hours)” value in experiment [1] (after 48 h of cultivation) and in experiment [1] (after 72 h of cultivation) was “clear increase” throughout. Moreover, the “cell proliferation (CyQUANT fluorescence normalized to the control at 24 hours)” value in experiment [2] (after 48 h of cultivation) and in experiment [2] (after 72 h of cultivation) was “clear increase” in each case. Besides, in the experiment with VEGF, the “relative gene expression of VEGF (normalized to GAPDH)” value was “significant increase; also recorded: significantly increased”.

The record behind these values is patent publication US20240115531A1, “Composition for Treating Hair and Scalp” (DR. KURT WOLFF GMBH & CO. KG, priority 2020, published 2024).
